Source: the kinase profiling compilation of Christmann-Franck et al. (2016)

Legend:
Assay in all cases: KINOMEscan competition binding
Details in all cases: compound 10.0 µM
DCLK2 (human) = DCLK2 (human) (UniProt Q8N568)
PRKAA2 (human) = PRKAA2 (human) (UniProt P54646)
MYO3B (human) = MYO3B (human) (UniProt Q8WXR4)
CLK1 (human) = CLK1 (human) (UniProt P49759)
MAP3K13 (human) = MAP3K13 (human) (UniProt O43283)
SRC (human) = SRC (human) (UniProt P12931)
TESK1 (human) = TESK1 (human) (UniProt Q15569)
GRK7 (human) = GRK7 (human) (UniProt Q8WTQ7)
ULK3 (human) = ULK3 (human) (UniProt Q6PHR2)
MST1R (human) = MST1R (human) (UniProt Q04912)
TNNI3K (human) = TNNI3K (human) (UniProt Q59H18)
LRRK2 (human) = LRRK2 (human) (UniProt Q5S007)
ACVR2B (human) = ACVR2B (human) (UniProt Q13705)
AXL (human) = AXL (human) (UniProt P30530)
PIP4K2C (human) = PIP4K2C (human) (UniProt Q8TBX8)
PRKACB (human) = PRKACB (human) (UniProt P22694)
NIM1 (human) = NIM1 (human) (UniProt Q8IY84)
PTK6 (human) = PTK6 (human) (UniProt Q13882)
CDKL3 (human) = CDKL3 (human) (UniProt Q8IVW4)
STK17A (human) = STK17A (human) (UniProt Q9UEE5)
FYN (human) = FYN (human) (UniProt P06241)
SYK (human) = SYK (human) (UniProt P43405)
WEE2 (human) = WEE2 (human) (UniProt P0C1S8)
MAST1 (human) = MAST1 (human) (UniProt Q9Y2H9)
PIK3C2B (human) = PIK3C2B (human) (UniProt O00750)
CSNK1D (human) = CSNK1D (human) (UniProt P48730)
CHEK2 (human) = CHEK2 (human) (UniProt O96017)
PLK2 (human) = PLK2 (human) (UniProt Q9NYY3)
CSNK2A1 (human) = CSNK2A1 (human) (UniProt P68400)
STK25 (human) = STK25 (human) (UniProt O00506)
HIPK3 (human) = HIPK3 (human) (UniProt Q9H422)
STK33 (human) = STK33 (human) (UniProt Q9BYT3)
FGFR2 (human) = FGFR2 (human) (UniProt P21802)
MAP4K1 (human) = MAP4K1 (human) (UniProt Q92918)
TEC (human) = TEC (human) (UniProt P42680)
ERBB3 (human) = ERBB3 (human) (UniProt P21860)
SIK2 (human) = SIK2 (human) (UniProt Q9H0K1)
MAPK12 (human) = MAPK12 (human) (UniProt P53778)
[1] = test system: LRRK2 (human), Q5S007 [G2019S]
BMPR2 (human) = BMPR2 (human) (UniProt Q13873)

NIM1 (human), sequence (Q8IY84 whole entry, looked up): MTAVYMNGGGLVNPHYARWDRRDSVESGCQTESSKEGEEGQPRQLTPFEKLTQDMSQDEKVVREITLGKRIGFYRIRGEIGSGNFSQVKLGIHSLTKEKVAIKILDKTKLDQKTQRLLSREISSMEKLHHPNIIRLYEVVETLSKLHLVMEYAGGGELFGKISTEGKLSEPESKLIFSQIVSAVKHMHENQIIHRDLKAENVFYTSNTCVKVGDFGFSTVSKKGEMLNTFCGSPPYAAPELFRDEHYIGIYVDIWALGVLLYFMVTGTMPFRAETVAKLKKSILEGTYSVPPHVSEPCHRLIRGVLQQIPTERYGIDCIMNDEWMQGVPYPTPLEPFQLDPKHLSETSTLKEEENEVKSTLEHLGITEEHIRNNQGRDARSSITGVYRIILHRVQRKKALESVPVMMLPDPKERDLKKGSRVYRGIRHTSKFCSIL
ERBB3 (human), sequence (P21860 whole entry, looked up): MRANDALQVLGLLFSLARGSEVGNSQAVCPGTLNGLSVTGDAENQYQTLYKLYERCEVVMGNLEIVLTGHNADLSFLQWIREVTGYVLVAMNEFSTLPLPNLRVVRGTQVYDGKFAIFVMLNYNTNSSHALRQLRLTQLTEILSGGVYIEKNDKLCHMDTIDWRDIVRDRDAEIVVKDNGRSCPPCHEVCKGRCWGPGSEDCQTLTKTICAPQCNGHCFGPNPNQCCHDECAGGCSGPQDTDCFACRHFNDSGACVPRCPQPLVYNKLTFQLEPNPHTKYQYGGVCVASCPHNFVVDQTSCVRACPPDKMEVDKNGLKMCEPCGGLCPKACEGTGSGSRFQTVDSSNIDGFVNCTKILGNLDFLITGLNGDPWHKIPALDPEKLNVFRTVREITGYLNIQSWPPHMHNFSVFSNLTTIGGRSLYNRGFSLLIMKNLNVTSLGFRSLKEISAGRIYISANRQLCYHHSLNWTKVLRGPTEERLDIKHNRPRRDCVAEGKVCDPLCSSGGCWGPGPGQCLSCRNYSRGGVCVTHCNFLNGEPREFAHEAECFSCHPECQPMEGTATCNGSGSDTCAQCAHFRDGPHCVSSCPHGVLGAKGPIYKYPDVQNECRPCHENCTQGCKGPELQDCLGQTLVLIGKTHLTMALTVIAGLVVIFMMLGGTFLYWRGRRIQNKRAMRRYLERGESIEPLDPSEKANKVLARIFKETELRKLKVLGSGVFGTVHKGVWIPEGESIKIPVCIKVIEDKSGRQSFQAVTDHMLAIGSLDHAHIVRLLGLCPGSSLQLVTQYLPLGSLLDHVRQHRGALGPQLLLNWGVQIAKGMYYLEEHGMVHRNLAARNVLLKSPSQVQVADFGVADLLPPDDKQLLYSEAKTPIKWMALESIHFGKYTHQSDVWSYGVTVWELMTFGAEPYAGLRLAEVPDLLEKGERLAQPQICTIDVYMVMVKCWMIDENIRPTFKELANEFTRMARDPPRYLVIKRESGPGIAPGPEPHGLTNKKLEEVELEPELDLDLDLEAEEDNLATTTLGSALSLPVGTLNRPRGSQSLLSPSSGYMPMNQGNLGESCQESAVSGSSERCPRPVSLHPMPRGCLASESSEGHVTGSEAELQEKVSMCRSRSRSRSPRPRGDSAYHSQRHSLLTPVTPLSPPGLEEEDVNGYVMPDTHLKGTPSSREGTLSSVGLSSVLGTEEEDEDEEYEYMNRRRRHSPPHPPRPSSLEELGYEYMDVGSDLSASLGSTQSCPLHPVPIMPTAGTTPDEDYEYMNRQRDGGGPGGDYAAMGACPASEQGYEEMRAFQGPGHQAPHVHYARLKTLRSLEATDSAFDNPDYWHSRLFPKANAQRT
LRRK2 (human), sequence (Q5S007 whole entry, looked up): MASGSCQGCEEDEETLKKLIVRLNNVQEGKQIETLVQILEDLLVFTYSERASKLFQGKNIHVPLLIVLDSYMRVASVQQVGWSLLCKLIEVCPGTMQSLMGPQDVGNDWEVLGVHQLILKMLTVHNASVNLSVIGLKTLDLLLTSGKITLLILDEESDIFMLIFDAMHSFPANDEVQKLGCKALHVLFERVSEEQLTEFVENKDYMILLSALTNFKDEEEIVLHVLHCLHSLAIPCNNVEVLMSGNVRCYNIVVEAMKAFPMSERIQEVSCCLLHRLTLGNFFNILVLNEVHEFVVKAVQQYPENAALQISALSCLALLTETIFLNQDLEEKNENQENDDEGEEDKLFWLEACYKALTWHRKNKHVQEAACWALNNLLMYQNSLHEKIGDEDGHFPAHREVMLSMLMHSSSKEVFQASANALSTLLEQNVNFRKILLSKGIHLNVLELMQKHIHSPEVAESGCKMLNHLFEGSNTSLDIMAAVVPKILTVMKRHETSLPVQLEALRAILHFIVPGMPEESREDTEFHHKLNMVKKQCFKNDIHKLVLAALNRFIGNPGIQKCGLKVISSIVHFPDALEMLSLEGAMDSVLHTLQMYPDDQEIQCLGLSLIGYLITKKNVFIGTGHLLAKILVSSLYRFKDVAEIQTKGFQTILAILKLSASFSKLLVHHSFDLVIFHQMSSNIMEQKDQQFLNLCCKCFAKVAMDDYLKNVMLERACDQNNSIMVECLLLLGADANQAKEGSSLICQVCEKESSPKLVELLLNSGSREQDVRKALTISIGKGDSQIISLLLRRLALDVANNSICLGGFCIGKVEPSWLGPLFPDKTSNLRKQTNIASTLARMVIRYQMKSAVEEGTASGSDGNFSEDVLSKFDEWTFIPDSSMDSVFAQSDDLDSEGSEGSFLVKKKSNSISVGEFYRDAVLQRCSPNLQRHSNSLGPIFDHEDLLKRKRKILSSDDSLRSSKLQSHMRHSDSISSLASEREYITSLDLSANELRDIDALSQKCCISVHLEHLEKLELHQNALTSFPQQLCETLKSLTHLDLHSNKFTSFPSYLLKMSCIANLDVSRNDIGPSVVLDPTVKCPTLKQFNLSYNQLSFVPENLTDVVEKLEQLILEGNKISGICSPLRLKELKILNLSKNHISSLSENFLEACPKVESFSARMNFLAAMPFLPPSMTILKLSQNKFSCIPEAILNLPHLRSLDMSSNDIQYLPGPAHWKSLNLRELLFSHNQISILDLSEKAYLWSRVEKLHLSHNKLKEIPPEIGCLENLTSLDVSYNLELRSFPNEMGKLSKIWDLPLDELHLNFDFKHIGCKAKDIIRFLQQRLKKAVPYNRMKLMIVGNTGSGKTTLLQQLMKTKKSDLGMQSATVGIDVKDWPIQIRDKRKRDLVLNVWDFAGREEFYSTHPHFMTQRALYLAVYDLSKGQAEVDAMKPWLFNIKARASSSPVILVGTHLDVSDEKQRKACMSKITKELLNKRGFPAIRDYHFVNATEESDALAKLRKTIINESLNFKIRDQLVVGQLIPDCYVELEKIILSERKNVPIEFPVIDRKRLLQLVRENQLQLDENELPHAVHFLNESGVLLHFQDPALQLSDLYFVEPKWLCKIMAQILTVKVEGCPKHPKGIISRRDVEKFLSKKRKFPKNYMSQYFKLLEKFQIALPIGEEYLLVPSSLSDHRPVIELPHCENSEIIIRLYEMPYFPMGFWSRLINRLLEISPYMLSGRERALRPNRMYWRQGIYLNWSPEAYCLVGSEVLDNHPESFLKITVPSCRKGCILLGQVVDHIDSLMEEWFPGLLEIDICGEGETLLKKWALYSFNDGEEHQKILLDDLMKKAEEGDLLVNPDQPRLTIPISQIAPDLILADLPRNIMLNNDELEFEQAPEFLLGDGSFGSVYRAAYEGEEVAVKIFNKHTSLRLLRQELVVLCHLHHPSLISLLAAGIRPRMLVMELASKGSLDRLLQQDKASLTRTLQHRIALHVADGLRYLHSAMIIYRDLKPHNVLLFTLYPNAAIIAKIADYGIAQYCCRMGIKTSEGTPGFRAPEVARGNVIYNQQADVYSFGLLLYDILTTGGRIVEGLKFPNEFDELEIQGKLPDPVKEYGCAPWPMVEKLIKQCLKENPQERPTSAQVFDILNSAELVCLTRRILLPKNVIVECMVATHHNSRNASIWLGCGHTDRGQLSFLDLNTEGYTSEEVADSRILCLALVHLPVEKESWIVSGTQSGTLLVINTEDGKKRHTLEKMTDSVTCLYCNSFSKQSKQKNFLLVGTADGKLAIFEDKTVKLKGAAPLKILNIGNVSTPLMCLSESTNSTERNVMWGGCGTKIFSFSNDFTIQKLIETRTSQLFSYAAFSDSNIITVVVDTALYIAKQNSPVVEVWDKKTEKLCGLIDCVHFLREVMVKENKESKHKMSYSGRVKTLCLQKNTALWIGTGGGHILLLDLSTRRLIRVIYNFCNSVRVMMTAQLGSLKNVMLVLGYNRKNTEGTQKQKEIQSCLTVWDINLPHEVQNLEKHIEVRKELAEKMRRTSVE
GRK7 (human), sequence (Q8WTQ7 whole entry, looked up): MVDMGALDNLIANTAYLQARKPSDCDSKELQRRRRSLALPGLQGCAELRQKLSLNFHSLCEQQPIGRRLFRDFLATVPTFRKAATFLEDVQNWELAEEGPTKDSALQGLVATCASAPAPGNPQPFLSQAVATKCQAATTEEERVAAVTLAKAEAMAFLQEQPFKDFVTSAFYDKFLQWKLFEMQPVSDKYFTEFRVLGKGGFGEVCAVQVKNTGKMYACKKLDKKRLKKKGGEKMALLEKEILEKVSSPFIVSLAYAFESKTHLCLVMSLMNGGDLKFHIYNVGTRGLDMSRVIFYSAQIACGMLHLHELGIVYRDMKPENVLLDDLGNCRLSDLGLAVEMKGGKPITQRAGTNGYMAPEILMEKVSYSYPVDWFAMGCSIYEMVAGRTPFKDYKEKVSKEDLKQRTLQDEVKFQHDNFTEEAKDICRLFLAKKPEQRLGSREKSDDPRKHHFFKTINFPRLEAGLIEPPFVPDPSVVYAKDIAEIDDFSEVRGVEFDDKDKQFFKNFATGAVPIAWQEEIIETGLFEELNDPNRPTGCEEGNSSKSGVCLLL
LRRK2 (human), Q5S007 [G2019S], sequence (Q5S007 whole entry G2019S, looked up): as the sequence (Q5S007 whole entry, looked up) above, with G2019S counted along it

`N#C/C(=C1/Nc2ccccc2S1)c1ccnc(NCCc2cccnc2)n1` was tested, and the kinase still bound, per cent of control (DCLK2 (human)) was 100%, the kinase still bound, per cent of control (PRKAA2 (human)) was 100% and the kinase still bound, per cent of control (MYO3B (human)) was 100%. The kinase still bound, per cent of control (CLK1 (human)) was 69%, the kinase still bound, per cent of control (MAP3K13 (human)) was 100% and the kinase still bound, per cent of control (SRC (human)) was 100%. For the same molecule, the kinase still bound, per cent of control (TESK1 (human)) was 87%, the kinase still bound, per cent of control (GRK7 (human)) was 47% and the kinase still bound, per cent of control (ULK3 (human)) was 12%. For the same molecule, the kinase still bound, per cent of control (MST1R (human)) was 100%, the kinase still bound, per cent of control (TNNI3K (human)) was 93% and the kinase still bound, per cent of control (LRRK2 (human)) was 100%. For the same molecule, the kinase still bound, per cent of control (ACVR2B (human)) was 98%, the kinase still bound, per cent of control (AXL (human)) was 100% and the kinase still bound, per cent of control (PIP4K2C (human)) was 3.7%. The kinase still bound, per cent of control (PRKACB (human)) was 100%, the kinase still bound, per cent of control (NIM1 (human)) was 100% and the kinase still bound, per cent of control (PTK6 (human)) was 59%. For the same molecule, the kinase still bound, per cent of control (CDKL3 (human)) was 100%, the kinase still bound, per cent of control (STK17A (human)) was 100% and the kinase still bound, per cent of control (FYN (human)) was 100%. The kinase still bound, per cent of control (SYK (human)) was 100%, the kinase still bound, per cent of control (WEE2 (human)) was 100% and the kinase still bound, per cent of control (MAST1 (human)) was 100%. The kinase still bound, per cent of control (PIK3C2B (human)) was 19%, the kinase still bound, per cent of control (CSNK1D (human)) was 42% and the kinase still bound, per cent of control (CHEK2 (human)) was 94%. It also gave a kinase still bound, per cent of control (PLK2 (human)) of 47%, a kinase still bound, per cent of control (CSNK2A1 (human)) of 0.4% and a kinase still bound, per cent of control (STK25 (human)) of 60%. The kinase still bound, per cent of control (HIPK3 (human)) was 0.25%, the kinase still bound, per cent of control (STK33 (human)) was 86% and the kinase still bound, per cent of control (FGFR2 (human)) was 100%. The kinase still bound, per cent of control (MAP4K1 (human)) was 100%, the kinase still bound, per cent of control (TEC (human)) was 92% and the kinase still bound, per cent of control (ERBB3 (human)) was 36%. For the same molecule, the kinase still bound, per cent of control (SIK2 (human)) was 82%, the kinase still bound, per cent of control (MAPK12 (human)) was 13% and the kinase still bound, per cent of control [1] was 74%. For the same molecule, the kinase still bound, per cent of control (BMPR2 (human)) was 88%.
